Test results: ChEMBL document CHEMBL1201862, “PubChem BioAssay data set” (2004)
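Interpolation was linear, between the two tested concentrations surrounding the appropriate level; five concentrations were tested over 48 hours in 96-well plates. GI50 is the concentration that inhibits growth by half.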 Calls of active or inactive are those of the source. Cut-off read from the data, not from the text of the source: active = GI50 up to about 1.1 µM and inactive = higher.

Tests used:
Test in all cases: NCI tumour cell line growth inhibition, 48 h
HT-29 = test system: HT-29
LOX IMVI = test system: LOX IMVI
HL-60 = test system: HL-60
HCT-15 = test system: HCT-15
786-0 = test system: 786-0
SNB-19 = test system: SNB-19
CAKI-1 = test system: CAKI-1
SF-268 = test system: SF-268
OVCAR-3 = test system: OVCAR-3
SN12C = test system: SN12C
K562 = test system: K562
HCC 2998 = test system: HCC 2998
RPMI-8226 = test system: RPMI-8226
CCRF-CEM = test system: CCRF-CEM
SF-295 = test system: SF-295

| SMILES | GI50 (HT-29) | GI50 (LOX IMVI) | GI50 (HL-60) | GI50 (HCT-15) [µM] | GI50 (786-0) | GI50 (SNB-19) | GI50 (CAKI-1) | GI50 (SF-268) | GI50 (OVCAR-3) | GI50 (SN12C) | GI50 (K562) | GI50 (HCC 2998) | GI50 (RPMI-8226) | GI50 (CCRF-CEM) | GI50 (SF-295) |
| --- | --- | --- | --- | --- | --- | --- | --- | --- | --- | --- | --- | --- | --- | --- | --- |
| COc1cc([C@@H]2OCC3C(c4ccc5c(c4)OCO5)OCC32)cc(OC)c1OC (stereo not given in full) | > 100 µM (inactive) | > 100 µM (inactive) | > 100 µM (inactive) | > 100 | > 100 µM (inactive) | 47.8 µM (inactive) | > 100 µM (inactive) | > 100 µM (inactive) | > 100 µM (inactive) | > 100 µM (inactive) | 54.1 µM (inactive) | > 100 µM (inactive) | 98.9 µM (inactive) | > 100 µM (inactive) | > 100 µM (inactive) |
| COc1ccccc1OCc1nnc(SCC(=O)O)n1-c1ccccc1 | > 100 µM (inactive) | > 100 µM (inactive) | > 100 µM (inactive) | > 100 | > 100 µM (inactive) | – | – | > 100 µM (inactive) | > 100 µM (inactive) | > 100 µM (inactive) | – | > 100 µM (inactive) | > 100 µM (inactive) | > 100 µM (inactive) | > 100 µM (inactive) |
| O=C(N/N=C(/CCN1CCCC1)CC(c1ccccc1)c1c(O)c2ccccc2oc1=O)c1ccncc1 (stereo not given) | > 100 µM (inactive) | > 100 µM (inactive) | 30 µM (inactive) | > 100 | > 100 µM (inactive) | > 100 µM (inactive) | > 100 µM (inactive) | > 100 µM (inactive) | > 100 µM (inactive) | > 100 µM (inactive) | 87.1 µM (inactive) | 0.171 µM (active) | 45.1 µM (inactive) | 50.8 µM (inactive) | > 100 µM (inactive) |
| CC(C)c1cccc(C(C)C)c1NC1=CC(=O)C(=O)c2ccccc21 | > 100 µM (inactive) | 36.3 µM (inactive) | 77.8 µM (inactive) | > 100 | > 100 µM (inactive) | > 100 µM (inactive) | > 100 µM (inactive) | > 100 µM (inactive) | > 100 µM (inactive) | > 100 µM (inactive) | > 100 µM (inactive) | > 100 µM (inactive) | > 100 µM (inactive) | > 100 µM (inactive) | > 100 µM (inactive) |
| Cn1cc2ccccc2c1-c1nc(F)nc(Oc2ccc3c(c2)CC[C@@H]2C3CC[C@@]3(C)C2C[C@H](O)[C@@H]3O)n1 (stereo not given in full) | 19.3 µM (inactive) | – | 22.4 µM (inactive) | 12.2 | 16.4 µM (inactive) | 13.8 µM (inactive) | 18.1 µM (inactive) | 13.1 µM (inactive) | 20.7 µM (inactive) | 13.7 µM (inactive) | 18.7 µM (inactive) | 15.4 µM (inactive) | 16.7 µM (inactive) | 2.66 µM (inactive) | 17.6 µM (inactive) |
| C=CCCCCCCCC(O)C1C[C@H](O)C(CCCCC)O1 (stereo not given in full) | 18.6 µM (inactive) | 19.6 µM (inactive) | 17.5 µM (inactive) | 21.5 | 17.9 µM (inactive) | – | 17.9 µM (inactive) | – | 17.5 µM (inactive) | 19.5 µM (inactive) | 20.7 µM (inactive) | 17.9 µM (inactive) | 17.1 µM (inactive) | 19.3 µM (inactive) | 17.6 µM (inactive) |
| NC(=O)c1ccccc1NC(=O)C(=O)Cc1nc2ccccc2nc1O | – | > 100 µM (inactive) | > 100 µM (inactive) | > 100 | > 100 µM (inactive) | > 100 µM (inactive) | > 100 µM (inactive) | > 100 µM (inactive) | > 100 µM (inactive) | – | > 100 µM (inactive) | > 100 µM (inactive) | > 100 µM (inactive) | > 100 µM (inactive) | > 100 µM (inactive) |
| CCOC(=O)C1=C(NC(C)(C)C)OC/C1=N\NC(=O)Cc1ccccc1 | > 100 µM (inactive) | > 100 µM (inactive) | > 100 µM (inactive) | > 100 | > 100 µM (inactive) | > 100 µM (inactive) | > 100 µM (inactive) | > 100 µM (inactive) | > 100 µM (inactive) | > 100 µM (inactive) | > 100 µM (inactive) | > 100 µM (inactive) | – | > 100 µM (inactive) | > 100 µM (inactive) |
| C/C(COc1ccccc1)=N\NC(N)=S | 61.9 µM (inactive) | > 100 µM (inactive) | > 100 µM (inactive) | > 100 | > 100 µM (inactive) | – | > 100 µM (inactive) | > 100 µM (inactive) | > 100 µM (inactive) | > 100 µM (inactive) | > 100 µM (inactive) | > 100 µM (inactive) | > 100 µM (inactive) | 61.7 µM (inactive) | > 100 µM (inactive) |
| CN/N=C(/CC(=O)c1sc(NNC(C)=O)nc1C)C(=O)Nc1ccc(OC)cc1OC | > 100 µM (inactive) | > 100 µM (inactive) | > 100 µM (inactive) | > 100 | > 100 µM (inactive) | > 100 µM (inactive) | > 100 µM (inactive) | > 100 µM (inactive) | > 100 µM (inactive) | > 100 µM (inactive) | > 100 µM (inactive) | > 100 µM (inactive) | > 100 µM (inactive) | > 100 µM (inactive) | > 100 µM (inactive) |
| COC(=O)C(C(=O)C(=O)Nc1cccc([N+](=O)[O-])c1)c1nc2ccc([N+](=O)[O-])cc2nc1O (stereo not given) | > 100 µM (inactive) | > 100 µM (inactive) | > 100 µM (inactive) | > 100 | > 100 µM (inactive) | > 100 µM (inactive) | > 100 µM (inactive) | > 100 µM (inactive) | > 100 µM (inactive) | > 100 µM (inactive) | > 100 µM (inactive) | > 100 µM (inactive) | – | > 100 µM (inactive) | > 100 µM (inactive) |
| Cc1ccc(NC(=O)CCC(=O)C2CC(=O)CCC2=O)cc1C (stereo not given) | > 100 µM (inactive) | > 100 µM (inactive) | > 100 µM (inactive) | > 100 | > 100 µM (inactive) | > 100 µM (inactive) | > 100 µM (inactive) | > 100 µM (inactive) | > 100 µM (inactive) | > 100 µM (inactive) | > 100 µM (inactive) | > 100 µM (inactive) | – | > 100 µM (inactive) | > 100 µM (inactive) |
| COc1cc([C@@H]2OC(=O)C3C2C(=O)O[C@H]3c2ccc(O)c(OC)c2)ccc1O (stereo not given in full) | > 100 µM (inactive) | > 100 µM (inactive) | – | > 100 | > 100 µM (inactive) | > 100 µM (inactive) | > 100 µM (inactive) | > 100 µM (inactive) | > 100 µM (inactive) | > 100 µM (inactive) | > 100 µM (inactive) | > 100 µM (inactive) | > 100 µM (inactive) | > 100 µM (inactive) | > 100 µM (inactive) |
| Cc1ccc(C(O)/C(=N/N)c2nc3ccc([N+](=O)[O-])cc3nc2O)cc1 (stereo not given) | > 100 µM (inactive) | > 100 µM (inactive) | 27 µM (inactive) | 28 | > 100 µM (inactive) | > 100 µM (inactive) | – | 74.6 µM (inactive) | > 100 µM (inactive) | > 100 µM (inactive) | 22.6 µM (inactive) | 4.66 µM (inactive) | 40.6 µM (inactive) | 13.5 µM (inactive) | > 100 µM (inactive) |
| COC(=O)/C=C(C)/C=C/c1cc(C(C)=O)c(C)o1 | > 100 µM (inactive) | > 100 µM (inactive) | > 100 µM (inactive) | > 100 | > 100 µM (inactive) | > 100 µM (inactive) | > 100 µM (inactive) | > 100 µM (inactive) | > 100 µM (inactive) | – | 62.1 µM (inactive) | > 100 µM (inactive) | 54.7 µM (inactive) | > 100 µM (inactive) | > 100 µM (inactive) |
| COC(=O)C(=O)C(C(=O)C(=O)Nc1cccc(C(C)=O)c1)c1nc2ccc([N+](=O)[O-])cc2nc1O (stereo not given) | > 100 µM (inactive) | > 100 µM (inactive) | 80 µM (inactive) | > 100 | > 100 µM (inactive) | > 100 µM (inactive) | > 100 µM (inactive) | > 100 µM (inactive) | – | > 100 µM (inactive) | > 100 µM (inactive) | > 100 µM (inactive) | > 100 µM (inactive) | > 100 µM (inactive) | > 100 µM (inactive) |
| Clc1ccc(CNc2nc3ccccc3nc2-c2cccs2)c(Cl)c1 | 61 µM (inactive) | – | 21.9 µM (inactive) | 38.1 | > 100 µM (inactive) | > 100 µM (inactive) | – | > 100 µM (inactive) | > 100 µM (inactive) | > 100 µM (inactive) | > 100 µM (inactive) | 43.5 µM (inactive) | 56.1 µM (inactive) | 98.9 µM (inactive) | > 100 µM (inactive) |
| O=C(O)/C(=C/C=C/c1ccccc1)c1csc(-c2nc(/C(=C\C=C\c3ccccc3)C(=O)O)cs2)n1 | 38.2 µM (inactive) | 29.5 µM (inactive) | 17.5 µM (inactive) | 23.4 | 23.2 µM (inactive) | 11.5 µM (inactive) | – | 30.7 µM (inactive) | 23.4 µM (inactive) | 28.7 µM (inactive) | 21.9 µM (inactive) | 20.1 µM (inactive) | 22.7 µM (inactive) | 19.7 µM (inactive) | 31.6 µM (inactive) |
| O=C(NCc1ccc2ccc3cccnc3c2n1)c1ccc[n+](Cc2ccccc2)c1 | 98.6 µM (inactive) | > 100 µM (inactive) | > 100 µM (inactive) | > 100 | > 100 µM (inactive) | > 100 µM (inactive) | – | > 100 µM (inactive) | 55.6 µM (inactive) | > 100 µM (inactive) | 83.8 µM (inactive) | > 100 µM (inactive) | 54.8 µM (inactive) | > 100 µM (inactive) | > 100 µM (inactive) |
